Experimental data published in ChEMBL document CHEMBL3885861, “Open TG-GATES”.

Species on record: Rattus norvegicus
Assay: Open TG-GATES - Regimen: Daily Repeat
Assay type: toxicity, organism-based, Sprague-Dawley
Set-up: regimen Daily Repeat, gender Male, age 6 weeks
Conditions: in vivo, po, 10 mg/kg, route gavage, dose level Low; for APTT / Bas / Eos / Fbg / Hb / Ht / Lym / MCH / MCHC / MCV / Mono / Neu / PT / Plat / RBC / Ret / WBC: tissue Blood; for KIDNEY_L / KIDNEY_R / KIDNEY_TOTAL: tissue Kidney; for LIVER: tissue Liver; for A/G / ALP / ALT / AST / BUN / CRE / Ca / Cl / DBIL / GLC / IP / K / LDH / Na / PL / RALB / TBIL / TC / TG / TP / gamma-GTP: tissue Plasma

Nc1ccc(Cc2ccc(N)cc2)cc1
TERMINAL_BW (72 h, time 3 day): 237.7 g | APTT (72 h, time 3 day): 13.9 s | Bas (72 h, time 3 day): 0.2% | Eos (72 h, time 3 day): 0.8% | Fbg (72 h, time 3 day): 280.2 mg/dL | Hb (72 h, time 3 day): 13.3 g/dL | Ht (72 h, time 3 day): 38.9% | Lym (72 h, time 3 day): 75% | MCH (72 h, time 3 day): 21.1 pg | MCHC (72 h, time 3 day): 34.2% | MCV (72 h, time 3 day): 61.5 fL | Mono (72 h, time 3 day): 2.4% | Neu (72 h, time 3 day): 20.8% | PT (72 h, time 3 day): 11.9 s | Plat (72 h, time 3 day): 149.6 x10_4/uL | RBC (72 h, time 3 day): 632.8 x10_4/ul | Ret (72 h, time 3 day): 5.9% | WBC (72 h, time 3 day): 114.1 x10_2/uL | KIDNEY_L (72 h, time 3 day): 1 g | KIDNEY_R (72 h, time 3 day): 1 g | KIDNEY_TOTAL (72 h, time 3 day): 1.9 g | LIVER (72 h, time 3 day): 11.4 g | A/G (72 h, time 3 day): 0.8 | ALP (72 h, time 3 day): 1752.4 IU/L | ALT (72 h, time 3 day): 41 IU/L | AST (72 h, time 3 day): 68.6 IU/L | BUN (72 h, time 3 day): 16.2 mg/dL | CRE (72 h, time 3 day): 0.2 mg/dL | Ca (72 h, time 3 day): 10.9 mg/dL | Cl (72 h, time 3 day): 106.6 meq/L | DBIL (72 h, time 3 day): 0.018 mg/dL | GLC (72 h, time 3 day): 181.4 mg/dL | IP (72 h, time 3 day): 7.7 mg/dL | K (72 h, time 3 day): 4.1 meq/L | LDH (72 h, time 3 day): 63 IU/L | Na (72 h, time 3 day): 143.6 meq/L | PL (72 h, time 3 day): 146.2 mg/dL | RALB (72 h, time 3 day): 2.7 g/dL | TBIL (72 h, time 3 day): 0.032 mg/dL | TC (72 h, time 3 day): 78.4 mg/dL | TG (72 h, time 3 day): 114.4 mg/dL | TP (72 h, time 3 day): 6 g/dL | gamma-GTP (72 h, time 3 day): 1 IU/L | TERMINAL_BW ([…], time 7 day): 279.3 g | TERMINAL_BW ([…], time 14 day): 335.7 g | TERMINAL_BW ([…], time 28 day): 440.9 g | APTT ([…], time 7 day): 13.6 s | Bas ([…], time 7 day): 0.2% | Eos ([…], time 7 day): 0.4% | Fbg ([…], time 7 day): 279.2 mg/dL | Hb ([…], time 7 day): 13.4 g/dL | Ht ([…], time 7 day): 39.2% | Lym ([…], time 7 day): 69.8% | MCH ([…], time 7 day): 20.6 pg | MCHC ([…], time 7 day): 34.1% | MCV ([…], time 7 day): 60.6 fL | Mono ([…], time 7 day): 2.8% | Neu ([…], time 7 day): 26.2% | PT ([…], time 7 day): 11.3 s | Plat ([…], time 7 day): 144.1 x10_4/uL | RBC ([…], time 7 day): 648 x10_4/ul | Ret ([…], time 7 day): 5.5% | WBC ([…], time 7 day): 107.7 x10_2/uL | APTT ([…], time 14 day): 15.6 s | Bas ([…], time 14 day): 0% | Eos ([…], time 14 day): 0.8% | Fbg ([…], time 14 day): 283.8 mg/dL | Hb ([…], time 14 day): 14.1 g/dL | Ht ([…], time 14 day): 40.9% | Lym ([…], time 14 day): 78% | MCH ([…], time 14 day): 20.6 pg | MCHC ([…], time 14 day): 34.6% | MCV ([…], time 14 day): 59.5 fL | Mono ([…], time 14 day): 1.8% | Neu ([…], time 14 day): 19% | PT ([…], time 14 day): 11.5 s | Plat ([…], time 14 day): 146.2 x10_4/uL | RBC ([…], time 14 day): 687 x10_4/ul | Ret ([…], time 14 day): 4.3% | WBC ([…], time 14 day): 125.5 x10_2/uL | APTT ([…], time 28 day): 16.1 s | Bas ([…], time 28 day): 0.2% | Eos ([…], time 28 day): 1% | Fbg ([…], time 28 day): 270.4 mg/dL | Hb ([…], time 28 day): 14.7 g/dL | Ht ([…], time 28 day): 41.8% | Lym ([…], time 28 day): 77.6% | MCH ([…], time 28 day): 19.6 pg | MCHC ([…], time 28 day): 35.1% | MCV ([…], time 28 day): 55.7 fL | Mono ([…], time 28 day): 1.4% | Neu ([…], time 28 day): 19.2% | PT ([…], time 28 day): 11.9 s | Plat ([…], time 28 day): 114.6 x10_4/uL | RBC ([…], time 28 day): 750.8 x10_4/ul | Ret ([…], time 28 day): 2.7% | WBC ([…], time 28 day): 114 x10_2/uL | KIDNEY_L ([…], time 7 day): 1.1 g | KIDNEY_R ([…], time 7 day): 1.1 g | KIDNEY_TOTAL ([…], time 7 day): 2.2 g | KIDNEY_L ([…], time 14 day): 1.2 g | KIDNEY_R ([…], time 14 day): 1.2 g | KIDNEY_TOTAL ([…], time 14 day): 2.3 g | KIDNEY_L ([…], time 28 day): 1.4 g | KIDNEY_R ([…], time 28 day): 1.4 g | KIDNEY_TOTAL ([…], time 28 day): 2.8 g | LIVER ([…], time 7 day): 13 g | LIVER ([…], time 14 day): 15.9 g | LIVER ([…], time 28 day): 17.9 g | A/G ([…], time 7 day): 0.8 | ALP ([…], time 7 day): 1642 IU/L | ALT ([…], time 7 day): 40.8 IU/L | AST ([…], time 7 day): 65 IU/L | BUN ([…], time 7 day): 16.8 mg/dL | CRE ([…], time 7 day): 0.2 mg/dL | Ca ([…], time 7 day): 11.4 mg/dL | Cl ([…], time 7 day): 104.6 meq/L | DBIL ([…], time 7 day): 0.026 mg/dL | GLC ([…], time 7 day): 182 mg/dL | IP ([…], time 7 day): 7.2 mg/dL | K ([…], time 7 day): 4.2 meq/L | LDH ([…], time 7 day): 60.6 IU/L | Na ([…], time 7 day): 143.6 meq/L | PL ([…], time 7 day): 143.8 mg/dL | RALB ([…], time 7 day): 2.7 g/dL | TBIL ([…], time 7 day): 0.07 mg/dL | TC ([…], time 7 day): 75.4 mg/dL | TG ([…], time 7 day): 105.6 mg/dL | TP ([…], time 7 day): 6 g/dL | gamma-GTP ([…], time 7 day): 1.4 IU/L | A/G ([…], time 14 day): 0.8 | ALP ([…], time 14 day): 1500.2 IU/L | ALT ([…], time 14 day): 38.8 IU/L | AST ([…], time 14 day): 64.6 IU/L | BUN ([…], time 14 day): 17 mg/dL | CRE ([…], time 14 day): 0.2 mg/dL | Ca ([…], time 14 day): 11.1 mg/dL | Cl ([…], time 14 day): 104.8 meq/L | DBIL ([…], time 14 day): 0.02 mg/dL | GLC ([…], time 14 day): 174.4 mg/dL | IP ([…], time 14 day): 7.1 mg/dL | K ([…], time 14 day): 3.8 meq/L | LDH ([…], time 14 day): 72.4 IU/L | Na ([…], time 14 day): 143.2 meq/L | PL ([…], time 14 day): 146.4 mg/dL | RALB ([…], time 14 day): 2.7 g/dL | TBIL ([…], time 14 day): 0.05 mg/dL | TC ([…], time 14 day): 70.4 mg/dL | TG ([…], time 14 day): 145 mg/dL | TP ([…], time 14 day): 6.2 g/dL | gamma-GTP ([…], time 14 day): 1 IU/L | A/G ([…], time 28 day): 0.8 | ALP ([…], time 28 day): 1150 IU/L | ALT ([…], time 28 day): 34.2 IU/L | AST ([…], time 28 day): 57.6 IU/L | BUN ([…], time 28 day): 16 mg/dL | CRE ([…], time 28 day): 0.2 mg/dL | Ca ([…], time 28 day): 10.9 mg/dL | Cl ([…], time 28 day): 105.4 meq/L | DBIL ([…], time 28 day): 0.02 mg/dL | GLC ([…], time 28 day): 177.6 mg/dL | IP ([…], time 28 day): 6.5 mg/dL | K ([…], time 28 day): 4 meq/L | LDH ([…], time 28 day): 64 IU/L | Na ([…], time 28 day): 144.4 meq/L | PL ([…], time 28 day): 133 mg/dL | RALB ([…], time 28 day): 2.7 g/dL | TBIL ([…], time 28 day): 0.056 mg/dL | TC ([…], time 28 day): 67 mg/dL | TG ([…], time 28 day): 112.4 mg/dL | TP ([…], time 28 day): 6.4 g/dL | gamma-GTP ([…], time 28 day): 1 IU/L
